Data as given in patent publication US20170087205A1, “Replacement Therapy for Natriuretic Peptide Deficiencies” (priority 2014, published 2017).
Positions of bridges follow the written chain, without caps; N, C: chain ends. Non-standard residues stand in square brackets, D forms with d. Residues, ends and D or L forms follow the SMILES beside them. *: point of attachment. X1 = N=C(N)NCCC[C@H]1C(=O)N[C@@H](C(N)=O)CN1*; dNle = CCCC[C@@H](N)C(=O)O; Heptanoyl = CCCCCCC(=O)*

What was measured:
[1] = in vivo; cited from earlier work
human NEP (hNEP) = human NEP (hNEP) (Homo sapiens, UniProt P08473); test: Metabolism by human neutral endopeptidase (hNEP); assay type: in vitro ADME; conditions: two hours, 37° C., substrate concentration 50 μM
Procedure: Pharmacol. 191:341-366 (2009)). A comparison was made between the sensitivity of the mimetic of formula IV and ANP to metabolism by human NEP (hNEP) (substrate concentration 50 μM). After two hours exposure to hNEP solution at 37° C., there was minimal degradation of the mimetic of formula IV (92% remaining; n=5). In contrast, under these conditions ANP was about 90% degraded after 60 minutes and 100% degraded after two hours (n=4). […] Results are shown in FIG. 1; results in FIG. 1 are expressed as the percent of the starting material, and are either the mean of 1-5 experiments or, where error bars are shown, are the mean±standard deviation.

[2] = Safety study in healthy volunteers: pharmacodynamic parameters (plasma cGMP); assay type: in vivo, human; conditions: mean ± SD
From the text: Cyclic guanosine monophosphate (cGMP) in the plasma samples was extracted using a protein precipitation method. cGMP and internal standard, cyclic adenosine monophosphate (cAMP), were separated using a HPLC technique and detected by an Applied Biosystems API-4000 liquid chromatography-tandem mass spectrometer (LC-MS/MS) with turbo-ion spray ionization (electrospray) in positive ion mode. Positive ions were detected in multiple reaction monitoring (MRM) mode with Precursor→Product ion pairs of 346.3→152.1 for cGMP, and 330.0→136.3 for cAMP.
In a safety study, the mimetic of formula IV was administered to healthy volunteers. Doses of 0.1, 0.3, 0.7 and 1.0 μg/kg of the mimetic of formula IV were administered.
Kel is the apparent terminal elimination rate constant, calculated by linear regression of the terminal linear portion of the log concentration versus the time curve. The plasma cGMP concentrations returned to baseline levels by approximately 8 hours after dosing following 0.7 μg/kg and 1.0 μg/kg of the mimetic of formula IV.

human NPRA = target: T1, human NPRA (Homo sapiens, UniProt P16066); assay type: cell-based; conditions: human NPRA in HEK cells; mean ± SD
T1 sequence (P16066 33-1061): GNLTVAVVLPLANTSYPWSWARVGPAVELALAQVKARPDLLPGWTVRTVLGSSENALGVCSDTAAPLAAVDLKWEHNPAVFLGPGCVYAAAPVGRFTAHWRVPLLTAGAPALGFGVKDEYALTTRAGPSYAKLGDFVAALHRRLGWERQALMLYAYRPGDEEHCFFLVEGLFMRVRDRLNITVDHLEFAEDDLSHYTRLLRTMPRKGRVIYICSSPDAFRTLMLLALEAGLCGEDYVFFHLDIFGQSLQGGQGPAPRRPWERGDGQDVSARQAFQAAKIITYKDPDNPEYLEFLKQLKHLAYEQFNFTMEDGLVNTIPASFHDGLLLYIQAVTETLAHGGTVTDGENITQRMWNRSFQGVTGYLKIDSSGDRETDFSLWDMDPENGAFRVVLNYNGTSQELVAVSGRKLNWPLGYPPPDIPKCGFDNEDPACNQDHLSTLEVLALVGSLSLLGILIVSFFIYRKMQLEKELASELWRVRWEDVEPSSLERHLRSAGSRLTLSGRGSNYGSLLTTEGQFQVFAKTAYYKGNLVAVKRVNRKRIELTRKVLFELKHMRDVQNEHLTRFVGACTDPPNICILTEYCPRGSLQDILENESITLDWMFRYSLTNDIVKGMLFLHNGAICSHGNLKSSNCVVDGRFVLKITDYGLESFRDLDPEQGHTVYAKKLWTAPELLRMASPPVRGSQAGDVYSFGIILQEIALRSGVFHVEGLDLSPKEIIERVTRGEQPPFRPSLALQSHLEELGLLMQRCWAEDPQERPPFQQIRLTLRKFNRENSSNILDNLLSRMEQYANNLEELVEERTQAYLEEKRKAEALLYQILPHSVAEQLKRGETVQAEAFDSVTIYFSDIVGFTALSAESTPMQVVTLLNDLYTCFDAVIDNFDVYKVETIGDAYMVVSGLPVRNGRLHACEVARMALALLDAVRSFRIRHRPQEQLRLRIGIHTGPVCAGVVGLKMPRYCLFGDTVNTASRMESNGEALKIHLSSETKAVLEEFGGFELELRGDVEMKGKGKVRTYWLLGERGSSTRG
Procedure: A cDNA clone that encodes for human natriuratic peptide receptor A (NPRA) was purchased from Bio S&T Inc. (Montreal, Quebec). The cDNA clone was inserted into the mammalian expression vector pcDNA3.1 (Invitrogen) and transfected into HEK-293 cells. Stable clones were selected by culture of cells in the presence of G418 sulfate. […] HEK-hNPRA cells were maintained in culture at 37° C. in 5% CO2 in Dulbecco's Modified Eagle's Medium (DMEM) supplemented with 10% FBS, G418 sulfate (300 μg/mL) sodium glutamate (0.29 mg/mL), penicillin (100 units/mL) and streptromycin (100 ug/mL).
Functional evaluation of natriuretic peptide mimetics was performed by measuring the accumulation of intracellular cGMP in HEK-293 cells that express recombinant hNPR-A. HEK-NPRA cells were harvested by washing and centrifugation in Cell Dissociation Buffer (Gibco, Life Technologies). Pelleted cells were resuspended in Hank's Balanced Salt Solution (HBSS) containing 10 mM Hepes (pH 7.4), 5 mM MgCl2, 200 mM L-glutamine, 1 mM 1,10-phenanthroline and BSA (0.5 mg/mL). Following centrifugation, cells were resuspended in the above buffer supplemented with 0.5 mM 3-isobutyl-1-methylxanthine (IBMX). […] Accumulation of cGMP was measured using the cGMP Flashplate RIA (Perkin-Elmer). Data analysis and EC50 values were determined by using nonlinear regression analysis with GraphPad Prism® software.

human NEP (hNEP), sequence (P08473 whole entry): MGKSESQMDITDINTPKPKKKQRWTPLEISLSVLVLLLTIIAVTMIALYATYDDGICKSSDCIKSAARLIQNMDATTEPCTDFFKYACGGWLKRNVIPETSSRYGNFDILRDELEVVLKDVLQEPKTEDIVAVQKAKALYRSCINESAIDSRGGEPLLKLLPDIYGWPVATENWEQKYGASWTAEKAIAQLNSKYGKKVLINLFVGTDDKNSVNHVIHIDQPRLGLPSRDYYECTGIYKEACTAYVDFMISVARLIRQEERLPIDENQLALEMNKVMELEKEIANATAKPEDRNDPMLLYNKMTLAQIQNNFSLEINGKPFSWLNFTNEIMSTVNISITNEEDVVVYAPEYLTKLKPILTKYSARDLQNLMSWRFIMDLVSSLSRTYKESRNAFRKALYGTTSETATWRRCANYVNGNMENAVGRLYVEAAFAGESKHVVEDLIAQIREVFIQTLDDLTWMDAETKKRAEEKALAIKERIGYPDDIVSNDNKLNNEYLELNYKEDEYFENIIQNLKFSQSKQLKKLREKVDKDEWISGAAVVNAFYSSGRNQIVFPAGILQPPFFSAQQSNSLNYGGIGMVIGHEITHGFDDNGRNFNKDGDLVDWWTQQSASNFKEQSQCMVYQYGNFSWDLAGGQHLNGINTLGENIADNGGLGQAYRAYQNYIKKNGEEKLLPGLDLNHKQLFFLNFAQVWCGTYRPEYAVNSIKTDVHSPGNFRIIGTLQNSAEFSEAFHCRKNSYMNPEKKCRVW

For `CC[C@H](C)[C@@H]1NC(=O)[C@H](CCCNC(=N)N)NC(=O)[C@H](CC(=O)O)NC(=O)[C@H](CC(C)C)NC(=O)[C@H](CCCCN)NC(=O)[C@H](CC(C)C)NC(=O)CNC(=O)[C@H](Cc2ccccc2)NC(=O)[C@@H](NC(=O)CNC(=O)[C@H](CCCCN)NC(=O)[C@H](CO)NC(=O)[C@H](CC(C)C)NC(=O)CN)CSSC[C@@H](C(=O)O)NC(=O)CNC(=O)[C@H](CC(C)C)NC(=O)CNC(=O)[C@H](CO)NC(=O)[C@H](CCSC)NC(=O)[C@H](CO)NC(=O)CNC1=O` [hCNP], the “reported human plasma half-life” value [1] is given as “about 2 minutes” and the “percent remaining after exposure to hNEP” value (human NEP (hNEP)) is given as 1%.
For `CCCCCCC(=O)N[C@H]1CSSC[C@@H](C(=O)N[C@@H](Cc2ccc(O)cc2)C(=O)N2C[C@H](C(N)=O)NC(=O)[C@@H]2CCCNC(=N)N)NC(=O)[C@H](CO)NC(=O)[C@H]([C@@H](C)CC)NC(=O)[C@H](CCCNC(=N)N)NC(=O)[C@H](CC(=O)O)NC(=O)[C@@H](CCCC)NC(=O)[C@H](CCCNC(=N)N)NC(=O)CNC(=O)[C@@H](C)NC(=O)[C@H](Cc2ccccc2)NC(=O)[C@H](Cc2c[nH]cn2)NC1=O` [mimetic of formula IV] (Heptanoyl-CHF[dA]GR[dNle]DRISCY-X1; disulfide 1-12), the t½ ([2]; 0.7 μg/kg) was 3.03 ± 0.345 h, the t½ ([2]; 1.0 μg/kg) was 2.98 ± 3.61 h and the “Function (cGMP) Emax (% of ANP response)” value (human NPRA) was 94 ± 8 % of ANP response.
